Reference: ChEMBL document CHEMBL4118132, “Novel 5-methyl-2-phenylphenanthridium derivatives as FtsZ-targeting antibacterial agents from structural simplification of natural product sanguinarine” (2018)
In brackets after ≈: the same amount, converted by molar mass.

Columns and labels:
Type in all cases: functional
Streptococcus pyogenes [1] = test: Antibacterial activity against penicillin-resistant Streptococcus pyogenes after 24 hrs by broth microdilution method
Bacillus subtilis = test: Antibacterial activity against penicillin-susceptible Bacillus subtilis ATCC 9372 after 24 hrs by broth microdilution method; conditions: ATCC 9372, 24 h
Staphylococcus aureus [2] = test: Bactericidal activity against penicillin-susceptible Staphylococcus aureus ATCC 25923 after 24 hrs by flat colony counting method; conditions: ATCC 25923, 24 h
Staphylococcus aureus [3] = test: Antibacterial activity against penicillin-susceptible Staphylococcus aureus ATCC 25923 after 24 hrs by broth microdilution method; conditions: ATCC 25923, 24 h
Bacillus pumilus = test: Antibacterial activity against penicillin-susceptible Bacillus pumilus ATCC 63202 after 24 hrs by broth microdilution method; conditions: ATCC 63202, 24 h
Pseudomonas aeruginosa = test: Antibacterial activity against penicillin-susceptible Pseudomonas aeruginosa ATCC 27853 after 24 hrs by broth microdilution method; conditions: ATCC 27853, 24 h
Escherichia coli = test: Antibacterial activity against penicillin-susceptible Escherichia coli ATCC 25922 after 24 hrs by broth microdilution method; conditions: ATCC 25922, 24 h
Staphylococcus aureus [4] = test: Antibacterial activity against methicillin-resistant Staphylococcus aureus ATCC 43300 after 24 hrs by broth microdilution method; conditions: ATCC 43300, 24 h
Staphylococcus aureus [5] = test: Antibacterial activity against penicillin-resistant Staphylococcus aureus clinical isolate after 24 hrs by broth microdilution method
Streptococcus pyogenes [6] = test: Antibacterial activity against penicillin-susceptible Streptococcus pyogenes after 24 hrs by broth microdilution method
[7] = tested on: Staphylococcus epidermidis; test: Antibacterial activity against penicillin-resistant Staphylococcus epidermidis clinical isolate after 24 hrs by broth microdilution method
Staphylococcus aureus [8] = test: Potency index, ratio of oxacillin sodium MIC to test compound MIC for penicillin-susceptible Staphylococcus aureus ATCC 25923
Staphylococcus aureus [9] = test: Potency index, ratio of oxacillin sodium MIC to test compound MIC for penicillin-resistant Staphylococcus aureus clinical isolate
Staphylococcus aureus [10] = test: Potency index, ratio of ciprofloxacin MIC to test compound MIC for methicillin-resistant Staphylococcus aureus ATCC 43300
Staphylococcus aureus [11] = test: Potency index, ratio of ciprofloxacin MIC to test compound MIC for penicillin-resistant Staphylococcus aureus clinical isolate
Staphylococcus aureus [12] = test: Potency index, ratio of oxacillin sodium MIC to test compound MIC for methicillin-resistant Staphylococcus aureus ATCC 43300
Staphylococcus aureus [13] = test: Potency index, ratio of ciprofloxacin MIC to test compound MIC for penicillin-susceptible Staphylococcus aureus ATCC 25923

SMILES | MIC (Streptococcus pyogenes [1]) [µg/mL] | MIC (Bacillus subtilis) [µg/mL] | MBC (Staphylococcus aureus [2]) [µg/mL] | MIC (Staphylococcus aureus [3]) [µg/mL] | MIC (Bacillus pumilus) [µg/mL] | MIC (Pseudomonas aeruginosa) [µg/mL] | MIC (Escherichia coli) [µg/mL] | MIC (Staphylococcus aureus [4]) [µg/mL] | MIC (Staphylococcus aureus [5]) [µg/mL] | MIC (Streptococcus pyogenes [6]) [µg/mL] | MIC [7] [µg/mL] | Ratio (Staphylococcus aureus [8]) | Ratio (Staphylococcus aureus [9]) | Ratio (Staphylococcus aureus [10]) | Ratio (Staphylococcus aureus [11]) | Ratio (Staphylococcus aureus [12]) | Ratio (Staphylococcus aureus [13])
C[n+]1cc2ccccc2c2cc(-c3cccc(C(F)(F)F)c3)ccc21.[Cl-] | 8 | 16 | > 64 | 8 | 16 | > 64 | > 64 | 16 | 16 | 16 | 8 | – | – | – | – | – | –
C[n+]1cc2ccccc2c2cc(-c3ccc(OC(F)(F)F)cc3)ccc21.[Cl-] | 32 | 2 | 64 | 4 | 8 | > 64 | > 64 | 64 | 64 | 4 | 16 | – | – | – | – | – | –
COc1ccc(-c2cc(C)c3c(c2)c2ccccc2c[n+]3C)cc1.[Cl-] | 8 | 2 | > 64 | 0.5 | 4 | > 64 | > 64 | 4 | 4 | 8 | 2 | 4 - 67 | 16 - 256 | 4 - 164 | 4 - 64 | 16 - 256 | 8 - 133
COc1cc(/C=C/C(=O)CC(=O)/C=C/c2ccc(O)c(OC)c2)ccc1O [CURCUMIN] | – | 32 (≈ 86.9 µM) | – | 32 (≈ 86.9 µM) | 32 (≈ 86.9 µM) | > 64 | > 64 | 64 (≈ 174 µM) | > 64 | > 64 | > 64 | – | – | – | – | – | –
C[n+]1cc2ccccc2c2cc(-c3ccccc3C(F)(F)F)ccc21.[Cl-] | 32 | 32 | > 64 | 16 | 32 | > 64 | > 64 | 32 | 32 | 64 | 32 | – | – | – | – | – | –
COc1ccc(-c2ccc3c(c2)c2ccccc2c[n+]3C)cc1.[Cl-] | 16 | 4 | > 64 | 4 | 16 | > 64 | > 64 | 64 | 64 | 4 | 64 | – | – | – | – | – | –
Cc1cc(-c2ccc(OC(F)(F)F)cc2)cc2c3ccccc3c[n+](C)c12.[Cl-] | 4 | 0.125 | 16 | 0.06 | 0.125 | > 64 | > 64 | 0.25 | 1 | 2 | 0.25 | 67 | 16 - 256 | 64 | 4 - 64 | 256 | 133
COc1cc(-c2cccc(C(F)(F)F)c2)cc2c3ccccc3c[n+](C)c12.[Cl-] | 8 | 4 | 32 | 2 | 4 | > 64 | > 64 | 8 | 8 | 4 | 4 | – | – | – | – | – | –
Cc1cc(-c2ccccc2)cc2c3ccccc3c[n+](C)c12.[Cl-] | 2 | 1 | 32 | 1 | 4 | > 64 | > 64 | 2 | 2 | 2 | 4 | 4 - 67 | 16 - 256 | 4 - 164 | 4 - 64 | 16 - 256 | 8 - 133
C[n+]1cc2ccccc2c2cc(-c3ccc(C(F)(F)F)cc3)ccc21.[Cl-] | 16 | 4 | > 64 | 8 | 8 | > 64 | > 64 | 16 | 16 | 2 | > 64 | – | – | – | – | – | –
C[n+]1cc2ccccc2c2cc(-c3ccccc3)ccc21.[Cl-] | 16 | 4 | > 64 | 32 | 16 | > 64 | > 64 | 16 | 64 | 4 | 16 | – | – | – | – | – | –
Cc1onc(-c2ccccc2)c1C(=O)N[C@@H]1C(=O)N2[C@@H]1SC(C)(C)[C@@H]2C(=O)[O-].[Na+] | > 64 | 4 | – | 4 | 32 | > 64 | > 64 | > 64 | > 64 | 1 | > 64 | – | – | – | – | – | –
C[n+]1cc2ccccc2c2cc(-c3ccc(-c4ccccc4)cc3)ccc21.[Cl-] | 64 | 8 | > 64 | 8 | 16 | > 64 | > 64 | 64 | 8 | 2 | > 64 | – | – | – | – | – | –
COc1ccc(-c2cc(OC)c3c(c2)c2ccccc2c[n+]3C)cc1.[Cl-] | 8 | 2 | > 64 | 16 | 8 | > 64 | > 64 | 32 | 64 | 4 | 16 | – | – | – | – | – | –
Cc1cc(-c2cccc(C(F)(F)F)c2)cc2c3ccccc3c[n+](C)c12.[Cl-] | 2 | 0.25 | 16 | 0.25 | 0.5 | > 64 | > 64 | 1 | 0.5 | 1 | 0.25 | 4 - 67 | 16 - 256 | 4 - 164 | 4 - 64 | 16 - 256 | 8 - 133
COc1cc(-c2ccc(C(F)(F)F)cc2)cc2c3ccccc3c[n+](C)c12.[Cl-] | 8 | 1 | 32 | 2 | 2 | > 64 | > 64 | 4 | 8 | 0.5 | 8 | – | – | – | – | – | –
Cc1ccc(-c2cc(C)c3c(c2)c2ccccc2c[n+]3C)cc1.[Cl-] | 4 | 0.5 | 32 | 0.5 | 2 | > 64 | > 64 | 2 | 1 | 4 | 2 | 4 - 67 | 16 - 256 | 4 - 164 | 4 - 64 | 16 - 256 | 8 - 133
COc1cc(-c2ccc(C)cc2)cc2c3ccccc3c[n+](C)c12.[Cl-] | 8 | 0.5 | 64 | 4 | 2 | > 64 | > 64 | 4 | 16 | 2 | 16 | – | – | – | – | – | –
COc1cc(-c2ccc(OC(F)(F)F)cc2)cc2c3ccccc3c[n+](C)c12.[Cl-] | 16 | 4 | 32 | 1 | 2 | > 64 | > 64 | 4 | 8 | 2 | 16 | – | – | – | – | – | –
COc1cc(-c2ccc(-c3ccccc3)cc2)cc2c3ccccc3c[n+](C)c12.[Cl-] | 16 | 2 | 16 | 1 | 2 | > 64 | > 64 | 4 | 4 | 1 | 8 | – | – | – | – | – | –
Cc1ccc(-c2ccc3c(c2)c2ccccc2c[n+]3C)cc1.[Cl-] | 16 | 2 | > 64 | 8 | 8 | > 64 | > 64 | 16 | 16 | 4 | 32 | – | – | – | – | – | –
COc1cc(-c2ccccc2C(F)(F)F)cc2c3ccccc3c[n+](C)c12.[Cl-] | 16 | 16 | > 64 | 8 | 16 | > 64 | > 64 | 16 | 16 | 16 | 16 | – | – | – | – | – | –
COc1cc(-c2ccccc2)cc2c3ccccc3c[n+](C)c12.[Cl-] | 8 | 1 | > 64 | 16 | 4 | > 64 | > 64 | 8 | 64 | 2 | 4 | – | – | – | – | – | –
